# Laboratory results: patent publication US10172837B2, “Insulin sensitisers and methods of treatment” (NAIA Metabolic, Inc., priority 2007, dated 2019)
# What was measured:
# [1] = system: 3T3-L1 adipocytes; test: 2-Deoxyglucose uptake by 3T3-L1 adipocytes; format: cell-based; details: for 2-Deoxyglucose uptake (Normalised: Vehicle with no insulin = 100%): DCP 10 μM
# Experimental: Dichlorphenamide was added during serum-starvation. […] Insulin at 0, 0.5 and 10 nM was added for 20 min at 37° C. Uptake of 50 μM 2-deoxy glucose and 0.5 μCi 2-deoxy-[U-^3H] glucose (NEN, PerkinElmer Life Sciences) per well was measured over the final 10 min of insulin stimulation. […] Counts per minute (cpm) were measured by scintillator counter. […] The data is expressed as a mean±SEM. The statistical analysis was performed using an umpaired t-test (2-tailed).
# [2] = system: obese Psammomys obesus (Israeli sand rats); test: Oral glucose tolerance test in obese Psammomys obesus; format: in vivo
# From the text: The outbred Israeli sand rat, Psammomys obesus is a unique animal model for the study of obesity and diabetes. When housed under standard laboratory conditions, a proportion of Israeli sand rats become obese and develop type 2 diabetes spontaneously, without requiring high caloric feeding like the diet-induced obese mouse model, or as a consequence of a mutation in a particular gene as in the db/db mouse model. In this regard their evolution into a diabetic state closely resembles the environmental and polygenic human condition. Type 2 diabetic P. obesus are also profoundly insulin resistant, as measured by the area under the blood glucose curve during an oral glucose tolerance test (OGTT). In addition, a proportion of the animals remain lean and healthy under these same conditions, while others develop a range of intermediate phenotypes. This response is similar to that seen in human populations. Diabetic P. obesus are characterised by having elevated blood glucose levels. […] USA). […] Glucose was measured in whole blood using a YSI glucose analyser (Model #2300 STAT PLUS, Yellow Springs Instruments Co., Ohio, USA). The instrument takes a sample aliquot of 25 μl and is calibrated every 10 samples using 5.55 and 8.33 mmol/L glucose standards. The analyser utilises a probe fitted with a 3-layer membrane containing an immobilised enzyme. J3-D-glucose is oxidised by glucose oxidase, which is immobilised on a polycarbonate cellulose membrane, to form glucono-( )-lactone and hydrogen peroxide. The hydrogen peroxide in turn, is oxidised at the platinum anode, producing electrons. The electron flow is linearly proportional to the steady state hydrogen peroxide concentration and therefore to the concentration of glucose in the sample. Insulin levels were measured in plasma obtained after the […] heparin-coated tubes. Plasma insulin concentrations were determined using a commercially-available double antibody radio-immunoassay (RIA) kit. (Linco Research Inc., USA). […] Solutions were then incubated for 2 hours before adding 1 ml of sheep anti-guinea pig antibody (second antibody) and left to incubate again for 30 min at room temperature. Bound and free insulin were then separated by centrifugation at 3,500 g for 20 min (Beckman Centrifuge Model J6B, Beckman Instruments, […], Australia), leaving the bound insulin in a pellet at the bottom of the tube following aspiration of each sample. A gamma counter (Minaxi g Auto-gamma 5000 series. Packard Instrument Company, IL, USA) with a counting time of 1 min was then used to measure the radioactivity of the solid phase pellet.
# [3] = system: Diet-Induced Obese (DIO) Mice; test: Fasting plasma glucose in diet-induced obese mice; format: in vivo, Mus Musculus
# [4] = system: Diet-Induced Obese (DIO) Mice; test: ipGTT (glucose tolerance) in diet-induced obese mice; format: in vivo, Mus Musculus; details: for AUC Day −1: before dosing; for AUC Day −1 / AUC Day 19: in mM·min
# [5] = 20 mg/Kg DCP oral gavage, 0 min after glucose gavage
# [6] = 20 mg/Kg DCP oral gavage, 15 min after glucose gavage
# [7] = 20 mg/Kg DCP oral gavage, 30 min after glucose gavage
# [8] = 20 mg/Kg DCP oral gavage, 45 min after glucose gavage
# [9] = 20 mg/Kg DCP oral gavage, 60 min after glucose gavage
# [10] = 20 mg/Kg DCP oral gavage, 90 min after glucose gavage
# [11] = dichlorphenamide 20 mg/kg oral gavage
# [12] = Dichlorphenamide 50 mg/kg oral gavage
compound,measurement,setting,value
NS(=O)(=O)c1cc(Cl)c(Cl)c(S(N)(=O)=O)c1 [Dichlorphenamide],2-Deoxyglucose uptake (Normalised: Vehicle with no insulin = 100%),[1]; 0.5 nM Insulin,1468 ± 400^2%
same,2-Deoxyglucose uptake (Normalised: Vehicle with no insulin = 100%),[1]; 10 nM Insulin,1826 ± 97 ^ %
same,2-Deoxyglucose uptake (Normalised: Vehicle with no insulin = 100%),[1]; no insulin (basal),508 ± 57^1%
same,effect on basal and insulin stimulated 2-deoxyglucose uptake,"[1]; basal, 0.5 nM and 10 nM insulin",enhanced
same,Plasma Glucose,[2]; [5],3.4 ± 0.2 mM
same,Plasma Insulin,[2]; [5],48 ± 15 mU/ml
same,Plasma Glucose,[2]; [6],5.4 ± 0.2 mM
same,Plasma Insulin,[2]; [6],141 ± 21 mU/ml
same,Plasma Glucose,[2]; [7],4.7 ± 0.4 mM
same,Plasma Insulin,[2]; [7],149 ± 49 mU/ml
same,Plasma Glucose,[2]; [8],5.1 ± 0.3 mM
same,Plasma Insulin,[2]; [8],123 ± 39 mU/ml
same,Plasma Glucose,[2]; [9],4.7 ± 0.4 mM
same,Plasma Insulin,[2]; [9],202 ± 46 mU/ml
same,Plasma Glucose,[2]; [10],4.3 ± 0.4 mM
same,Plasma Insulin,[2]; [10],117 ± 22 mU/ml
same,Plasma Glucose AUC,"[2]; 20 mg/Kg DCP oral gavage, OGTT 0-90 min",119 ± 16 mM·min
same,Plasma Insulin AUC,"[2]; 20 mg/Kg DCP oral gavage, OGTT 0-90 min, listed as head prints (mM · min)","8,548 ± 2441"
same,effect on glucose tolerance in oral glucose tolerance test,[2]; area under plasma glucose and plasma insulin curve,increased the glucose tolerance
same,effect on fasting plasma glucose levels of diet-induced obese mice,[3],reduced the fasting plasma glucose levels
same,FPG Day −1,"[3]; dichlorphenamide 20 mg/kg group, before dosing",10.05 ± 0.2 mM
same,Delta FPG Treatment Day 14 vs Day −1,[3]; [11],−17%^1
same,Delta FPG Treatment vs Vehicle Day 14,[3]; [11],−11%^2
same,FPG Day 14,[3]; [11],8.35 ± 0.2 mM
same,effect on glucose tolerance of diet-induced obese mice,[4],improves the glucose tolerance
same,AUC Day −1,[4]; Dichlorphenamide 20 mg/kg group,1350 ± 56
same,AUC Day 19,[4]; Dichlorphenamide 20 mg/kg oral gavage,832 ± 80
same,AUC Day −1,[4]; Dichlorphenamide 50 mg/kg group,1345 ± 73
same,AUC Day 19 Treat vs Veh,[4]; [12],−8%
same,Delta AUC Day 19 vs Day −1,[4]; [12],−32%^1
same,AUC Day 19,[4]; [12],908 ± 38
same,AUC Day 19 Treat vs Veh,[4]; [11],−16%
same,Delta AUC Day 19 vs Day −1,[4]; [11],−38%^2
